Target: human GLP1R (Homo sapiens (Human), UniProt P43220)
Test: In vitro cAMP signal activation in human GLP1R stably-expressing cell line (hGLP1R-HEK293)
Type: cell-based
Conditions: cAMP concentration in hGLP1R-HEK293; 100% = 1 nM human GLP-1 (7-37)

Sequence of human GLP1R (P43220 24-463): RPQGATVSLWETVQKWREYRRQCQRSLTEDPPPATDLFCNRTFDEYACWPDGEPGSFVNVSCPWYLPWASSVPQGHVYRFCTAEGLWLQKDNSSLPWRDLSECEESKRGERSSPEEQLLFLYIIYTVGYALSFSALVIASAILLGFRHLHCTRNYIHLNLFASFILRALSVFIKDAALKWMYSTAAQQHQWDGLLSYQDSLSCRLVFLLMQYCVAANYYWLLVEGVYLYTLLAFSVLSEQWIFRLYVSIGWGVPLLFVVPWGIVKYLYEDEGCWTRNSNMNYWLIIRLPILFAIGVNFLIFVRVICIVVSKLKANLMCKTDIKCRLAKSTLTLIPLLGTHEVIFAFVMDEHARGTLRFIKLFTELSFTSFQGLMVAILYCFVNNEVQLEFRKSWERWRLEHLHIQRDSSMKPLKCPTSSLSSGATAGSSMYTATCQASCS

Structure (SMILES) | EC50 [nM]
COCCn1ncc2cc(-n3ccn(-c4c5c(nn4-c4cc(C)c(F)c(C)c4)CCN(C(=O)c4cc6cc([C@H]7CCOC(C)(C)C7)ccc6n4[C@@]4(c6noc(=O)[nH]6)C[C@@H]4C)[C@H]5C)c3=O)c(F)cc21 [compound 71, 3-[(1S,2S)-1-[5-[(4S)-2,2-dimethyloxan-4-yl]-2-[(4S)-2-(4-fluoro-3,5-dimethylphenyl)-3-[3-[6-fluoro-1-(2-methoxyethyl)indazol-5-yl]-2-oxoimidazol-1-yl]-4-methyl-6,7-dihydro-4H-pyrazolo[4,3-c]pyridine-5-carbonyl]indol-1-yl]-2-methylcyclopropyl]-4H-1,2,4-oxadiazol-5-one] | 1.3
COc1nccc(-c2ccc3c(c2)cc(C(=O)N2CCc4nn(-c5cc(C)c(F)c(C)c5)c(-n5ccn(-c6ccc7c(cnn7CC(C)(C)O)c6)c5=O)c4[C@@H]2C)n3[C@@]2(c3noc(=O)[nH]3)C[C@@H]2C)c1C [Example 13, 3-[(1S,2S)-1-[2-[(4S)-2-(4-fluoro-3,5-dimethylphenyl)-3-[3-[1-(2-hydroxy-2-methylpropyl)indazol-5-yl]-2-oxoimidazol-1-yl]-4-methyl-6,7-dihydro-4H-pyrazolo[4,3-c]pyridine-5-carbonyl]-5-(2-methoxy-3-methylpyridin-4-yl)indol-1-yl]-2-methylcyclopropyl]-4H-1,2,4-oxadiazol-5-one] | 3.7
COCCn1ncc2cc(-n3ccn(-c4c5c(nn4-c4cc(C)c(F)c(C)c4)CCN(C(=O)c4cc6cc(C7CCOCC7)cnc6n4[C@@]4(c6noc(=O)[nH]6)C[C@@H]4C)C5)c3=O)ccc21 [compound 56, 3-[(1S,2S)-1-[2-[2-(4-fluoro-3,5-dimethylphenyl)-3-[3-[1-(2-methoxyethyl)indazol-5-yl]-2-oxoimidazol-1-yl]-6,7-dihydro-4H-pyrazolo[4,3-c]pyridine-5-carbonyl]-5-(oxan-4-yl)pyrrolo[2,3-b]pyridin-1-yl]-2-methylcyclopropyl]-4H-1,2,4-oxadiazol-5-one] | 3.4
Cc1cc(-n2ccn(-c3c4c(nn3-c3cc(C)c(F)c(C)c3)CCN(C(=O)c3cc5cc(C6CCOCC6)ccc5n3[C@@]3(c5noc(=O)[nH]5)C[C@@H]3C)[C@H]4C)c2=O)ccc1OCCO [Example 19, 3-[(1S,2S)-1-[2-[(4S)-2-(4-fluoro-3,5-dimethylphenyl)-3-[3-[4-(2-hydroxyethoxy)-3-methylphenyl]-2-oxoimidazol-1-yl]-4-methyl-6,7-dihydro-4H-pyrazolo[4,3-c]pyridine-5-carbonyl]-5-(oxan-4-yl)indol-1-yl]-2-methylcyclopropyl]-4H-1,2,4-oxadiazol-5-one] | 1.3
Cc1cc(-n2nc3c(c2-n2ccn(-c4ccc5c(cnn5C)c4)c2=O)CN(C(=O)c2cc4cc(N5CCOC6(CC6)C5)ccc4n2[C@@]2(c4noc(=O)[nH]4)C[C@@H]2C)CC3)cc(C)c1F [compound 52] | 6.7
Cc1cc(-n2nc3c(c2-n2ccn(-c4ccc5c(cnn5C)c4Cl)c2=O)[C@H](C)N(C(=O)c2cc4cc([C@H]5CCOC(C)(C)C5)ccc4n2[C@@]2(c4noc(=O)[nH]4)C[C@@H]2C)CC3)cc(C)c1F [compound 68, 3-[(1S,2S)-1-[2-[(4S)-3-[3-(4-chloro-1-methylindazol-5-yl)-2-oxoimidazol-1-yl]-2-(4-fluoro-3,5-dimethylphenyl)-4-methyl-6,7-dihydro-4H-pyrazolo[4,3-c]pyridine-5-carbonyl]-5-[(4S)-2,2-dimethyloxan-4-yl]indol-1-yl]-2-methylcyclopropyl]-4H-1,2,4-oxadiazol-5-one] | 1.8
COCCn1ncc2cc(-n3ccn(-c4c5c(nn4-c4cc(C)c(F)c(C)c4)CCN(C(=O)c4cc6cc(C7CCOCC7)ccc6n4[C@@]4(c6noc(=O)[nH]6)C[C@@H]4C)[C@H]5C)c3=O)ccc21 [Example 16, 3-[(1S,2S)-1-[2-[(4S)-2-(4-fluoro-3,5-dimethylphenyl)-3-[3-[1-(2-methoxyethyl)indazol-5-yl]-2-oxoimidazol-1-yl]-4-methyl-6,7-dihydro-4H-pyrazolo[4,3-c]pyridine-5-carbonyl]-5-(oxan-4-yl)indol-1-yl]-2-methylcyclopropyl]-4H-1,2,4-oxadiazol-5-one] | 0.51
Cc1cc(-n2nc3c(c2-n2ccn(-c4ccc5[nH]ncc5c4)c2=O)[C@H](C)N(C(=O)c2cc4cc(C5CCOC(C)(C)C5)ccc4n2[C@@]2(c4noc(=O)[nH]4)C[C@@H]2C)CC3)cc(C)c1F (stereo in doubt) [Example 34, 3-[(1S,2S)-1-[5-[(4S)-2,2-dimethyloxan-4-yl]-2-[(4S)-2-(4-fluoro-3,5-dimethylphenyl)-3-[3-(1H-indazol-5-yl)-2-oxoimidazol-1-yl]-4-methyl-6,7-dihydro-4H-pyrazolo[4,3-c]pyridine-5-carbonyl]indol-1-yl]-2-methylcyclopropyl]-4H-1,2,4-oxadiazol-5-one] | 3
Cc1cc(-n2nc3c(c2-n2ccn(-c4ccc5c(cnn5CC(F)(F)F)c4F)c2=O)[C@H](C)N(C(=O)c2cc4cc([C@H]5CCOC(C)(C)C5)ccc4n2[C@@]2(c4noc(=O)[nH]4)C[C@@H]2C)CC3)cc(C)c1Cl [Example 42, 3-[(1S,2S)-1-[2-[(4S)-2-(4-chloro-3,5-dimethylphenyl)-3-[3-[4-fluoro-1-(2,2,2-trifluoroethyl)indazol-5-yl]-2-oxoimidazol-1-yl]-4-methyl-6,7-dihydro-4H-pyrazolo[4,3-c]pyridine-5-carbonyl]-5-[(4S)-2,2-dimethyloxan-4-yl]indol-1-yl]-2-methylcyclopropyl]-4H-1,2,4-oxadiazol-5-one] | 1.9
Cc1cc(-n2nc3c(c2-n2ccn(-c4ccc5c(cnn5C)c4F)c2=O)[C@H](C)N(C(=O)c2cc4cc([C@H]5CCOC(C)(C)C5)ccc4n2[C@@]2(c4noc(=O)[nH]4)C[C@@H]2C)CC3)cc(C)c1Cl [compound 65, 3-[(1S,2S)-1-[2-[(4S)-2-(4-chloro-3,5-dimethylphenyl)-3-[3-(4-fluoro-1-methylindazol-5-yl)-2-oxoimidazol-1-yl]-4-methyl-6,7-dihydro-4H-pyrazolo[4,3-c]pyridine-5-carbonyl]-5-[(4S)-2,2-dimethyloxan-4-yl]indol-1-yl]-2-methylcyclopropyl]-4H-1,2,4-oxadiazol-5-one] | 3.5
CCc1nccc(-c2ccc3c(c2)cc(C(=O)N2CCc4nn(-c5cc(C)c(F)c(C)c5)c(-n5ccn(-c6ccc7c(C)nsc7c6)c5=O)c4C2)n3[C@@]2(c3noc(=O)[nH]3)C[C@@H]2C)c1C [Example 3] | 6.1
COc1nccc(-c2cc3cc(C(=O)N4CCc5nn(-c6cc(C)c(F)c(C)c6)c(-n6ccn(-c7ccc8c(cnn8C)c7)c6=O)c5[C@@H]4C)n([C@@]4(c5noc(=O)[nH]5)C[C@@H]4C)c3cc2F)c1C [compound 74, 3-[(1S,2S)-1-[6-Fluoro-2-[(4S)-2-(4-fluoro-3,5-dimethylphenyl)-4-methyl-3-[3-(1-methylindazol-5-yl)-2-oxoimidazol-1-yl]-6,7-dihydro-4H-pyrazolo[4,3-c]pyridine-5-carbonyl]-5-(2-methoxy-3-methylpyridin-4-yl)indol-1-yl]-2-methylcyclopropyl]-4H-1,2,4-oxadiazol-5-one] | 6.2
Cc1cc(-n2nc3c(c2-n2ccn(-c4ccc5c(cnn5CC(F)(F)F)c4F)c2=O)[C@H](C)N(C(=O)c2cc4cc(C5CCOCC5)ccc4n2[C@@]2(c4noc(=O)[nH]4)C[C@@H]2C)CC3)cc(C)c1F [Example 28, 3-[(1S,2S)-1-[2-[(4S)-2-(4-fluoro-3,5-dimethylphenyl)-3-[3-[4-fluoro-1-(2,2,2-trifluoroethyl)indazol-5-yl]-2-oxoimidazol-1-yl]-4-methyl-6,7-dihydro-4H-pyrazolo[4,3-c]pyridine-5-carbonyl]-5-(oxan-4-yl)indol-1-yl]-2-methylcyclopropyl]-4H-1,2,4-oxadiazol-5-one] | 1.9
COCCn1ncc2c(F)c(-n3ccn(-c4c5c(nn4-c4ccc(F)c(C)c4)CCN(C(=O)c4cc6cc([C@H]7CCOC(C)(C)C7)ccc6n4[C@@]4(c6noc(=O)[nH]6)C[C@@H]4C)[C@H]5C)c3=O)ccc21 [Example 48, 3-[(1S,2S)-1-[5-[(4S)-2,2-dimethyloxan-4-yl]-2-[(4S)-3-[3-[4-fluoro-1-(2-methoxyethyl)indazol-5-yl]-2-oxoimidazol-1-yl]-2-(4-fluoro-3-methylphenyl)-4-methyl-6,7-dihydro-4H-pyrazolo[4,3-c]pyridine-5-carbonyl]indol-1-yl]-2-methylcyclopropyl]-4H-1,2,4-oxadiazol-5-one] | 3

Source: patent US10858356B2, “Pyrazolopyridine derivative having GLP-1 receptor agonist effect” (Chugai Seiyaku Kabushiki Kaisha, priority 2016, dated 2020)
